Source: publication PMC12348107, “Saponins from Oxybasis rubra (L.) S.Fuentes, Uotila & Borsh: Comparative Assessment of Cytotoxic Potential Against a Wide Panel of Cancer Cell Lines” (Molecules, 2025)
Where “and” joins values, the source holds several entries; their conditions need not be identical. Equal values may be shown once. Read-outs that look alike come from different tables or passages of the source.

Columns and labels:
[1] = test system: Caco-2 colon adenocarcinoma cells; test: LDH cytotoxicity assay, Caco-2; type: cell-based; conditions: Homo sapiens, LDH test, read-out: Cytotoxic activity expressed as IC50
Method: (§1) The cytotoxic activity was tested on human cancer and normal cell lines, grouped in several panels: skin (malignant melanoma HTB-140, malignant melanoma A375, melanoma WM793, and normal keratinocytes HaCaT), prostate (prostate carcinoma DU-145, prostate carcinoma PC3, and prostate epithelial cells PNT2), thyroid (thyroid carcinoma FTC133, thyroid carcinoma, undifferentiated 8505C), gastrointestinal panel (hepatocellular carcinoma HepG2, colon adenocarcinoma Caco-2, and colon adenocarcinoma HT29), and single line of lung carcinoma A549. Cells were grown at standard conditions (37 °C, 5% CO2, relative humidity) and culture media (DMEM/F12 for PNT2, WM793, HT29, A549; DMEM Low Glucose for DU-145; DMEM High Glucose for A375, HaCaT, A549; MEM with NEAA for Caco-2), supplemented with 10% fetal bovine serum (FBS) and 1% antibiotic solution (10,000 U penicillin and 10 mg streptomycin/mL). All cell lines, cell culture media, and supplements were from Merck (Seelze, Germany).
(§2) Before the experiment, cells were seeded onto 96-well plates for 24 h, at a density of 1.5 × 10^4 cells/ well. Then the tested compounds (5–100 μg/mL) were added and incubated for 24 and 48 h. Cell viability was measured with the lactate dehydrogenase (LDH) assay by Clontech (Clontech, Mountain View, CA, USA), as described previously. The absorbance was measured at 490 nm using a Biotek Synergy microplate reader (BioTek Instruments Inc., Winooski, VT, USA). Cell viability was expressed as a percentage of dead cells. Each experiment was conducted in triplicate. Doxorubicin was used as a reference cytostatic.
(§3) The results were expressed as mean (±SD). Data were analyzed using Statistica v.13.3 (StatSoft, Tulsa, OK, USA). The IC50 values were calculated using OriginPro 2020b (64-bit) 9.7.5.184 (Academic) (OriginLab Corporation, Northampton, MA, USA). One-way analysis of variance (ANOVA) and the post-hoc Tukey multiple comparison test were used. The statistical significance was defined at the probability level of p < 0.05. Principal component analysis (PCA) and hierarchical cluster analysis (HCA) were performed using Statistica v.13.3 (StatSoft, Tulsa, OK, USA). Prior to PCA, the Bartlett’s sphericity test was conducted, and the Kaiser-Meyer-Olkin Measure of Sampling Adequacy index (KMO) was examined. In the simple model, for each compound tested (1–4), the cell lines were the cases, and the different concentrations of the compound were the parameters. This was followed by a PCA model in which the cell lines were the parameters, and the compounds (at different concentrations) were the cases. All PCA models were based on a correlation matrix. Hierarchical cluster analysis (CA) based on standardized data was performed using Ward’s method and Euclidean distance. The results were grouped based on Mojena’s rule.

[2] = test system: HT29 colon adenocarcinoma cells; test: LDH cytotoxicity assay, HT29; type: cell-based; conditions: Homo sapiens, HT-29, LDH test, read-out: Cytotoxic activity expressed as IC50
Method: as §1, §2, §3

[3] = test system: HTB-140 malignant melanoma cells; test: LDH cytotoxicity assay, HTB-140; type: cell-based; conditions: Homo sapiens, LDH test, read-out: Cytotoxic activity expressed as IC50
Method: as §1, §2, §3

[4] = test system: PC3 metastatic prostate carcinoma cells; test: LDH cytotoxicity assay, PC3; type: cell-based; conditions: Homo sapiens, LDH test, read-out: Cytotoxic activity expressed as IC50
Method: as §1, §2, §3

[5] = test system: HepG2 hepatocellular carcinoma cells; test: LDH cytotoxicity assay, HepG2; type: cell-based; conditions: Homo sapiens, LDH test, read-out: Cytotoxic activity expressed as IC50
Method: as §1, §2, §3

[6] = test system: A375 malignant melanoma cells; test: LDH cytotoxicity assay, A375; type: cell-based; conditions: Homo sapiens, A-375, LDH test, read-out: Cytotoxic activity expressed as IC50
Method: as §1, §2, §3

[7] = test system: A549 lung carcinoma cells; test: LDH cytotoxicity assay, A549; type: cell-based, human; conditions: Homo sapiens, LDH test, read-out: Cytotoxic activity expressed as IC50
Method: as §1, §2, §3

[8] = test system: WM793 primary melanoma cells; test: LDH cytotoxicity assay, WM793; type: cell-based; conditions: Homo sapiens, LDH test, read-out: Cytotoxic activity expressed as IC50
Method: as §1, §2, §3

[9] = test system: 8505C undifferentiated thyroid carcinoma cells; test: LDH cytotoxicity assay, 8505C; type: cell-based; conditions: Homo sapiens, LDH test, read-out: Cytotoxic activity expressed as IC50
Method: as §1, §2, §3

[10] = test system: human cancer and normal cell lines; test: Cytotoxicity screening across the whole cell line panel; type: cell-based; conditions: all cell lines tested, 5–100 μg/mL, 24 and 48 h
Method: The cytotoxic activity was tested on human cancer and normal cell lines, grouped in several panels: skin (malignant melanoma HTB-140, malignant melanoma A375, melanoma WM793, and normal keratinocytes HaCaT), prostate (prostate carcinoma DU-145, prostate carcinoma PC3, and prostate epithelial cells PNT2), thyroid (thyroid carcinoma FTC133, thyroid carcinoma, undifferentiated 8505C), gastrointestinal panel (hepatocellular carcinoma HepG2, colon adenocarcinoma Caco-2, and colon adenocarcinoma HT29), and single line of lung carcinoma A549. […]
as §2, with “Then the tested compounds (5–100 μg/mL) were added and incubated for 24 and 48 h.” left out, “Each experiment was conducted in triplicate. Doxorubicin was used as a reference cytostatic.” left out
The results were expressed as mean (±SD). Data were analyzed using Statistica v.13.3 (StatSoft, Tulsa, OK, USA). The IC50 values were calculated using OriginPro 2020b (64-bit) 9.7.5.184 (Academic) (OriginLab Corporation, Northampton, MA, USA). […]

[11] = test system: FTC133 follicular thyroid carcinoma cells; test: LDH cytotoxicity assay, FTC133; type: cell-based; conditions: Homo sapiens, FTC-133, LDH test, read-out: Cytotoxic activity expressed as IC50
Method: as §1, §2, §3

[12] = LDH cytotoxicity assay, PNT2; type: cell-based, human; conditions: human, PNT2 prostate epithelial cells (normal), PNT2 normal cells, LDH test, read-out: Cytotoxic activity expressed as IC50; for IC50 at 24 h: 24 h incubation; for IC50 at 48 h: 48 h incubation
Method: as §1, §2, §3

[13] = test system: DU-145 metastatic prostate carcinoma cells; test: LDH cytotoxicity assay, DU-145; type: cell-based, human; conditions: Homo sapiens, LDH test, read-out: Cytotoxic activity expressed as IC50
Method: as §1, §2, §3

[14] = LDH cytotoxicity assay, HaCaT; type: cell-based, human; conditions: human, HaCaT normal keratinocytes, HaCaT normal cells, LDH test, read-out: Cytotoxic activity expressed as IC50; for IC50 at 24 h: 24 h incubation; for IC50 at 48 h: 48 h incubation
Method: as §1, §2, §3

[15] = A549, 24 h, A549, 24 h incubation
[16] = A549, 48 h, A549, 48 h incubation

Row | Structure (SMILES) | IC50 ([1]; Caco-2, 24 h incubation) | IC50 ([1]; Caco-2, 48 h incubation) | IC50 ([2]; HT29, 24 h incubation) | IC50 ([2]; HT29, 48 h incubation) | IC50 ([3]; HTB-140, 24 h incubation) | IC50 ([3]; HTB-140, 48 h incubation) | IC50 ([4]; PC3, 24 h incubation) | IC50 ([4]; PC3, 48 h incubation) | IC50 ([5]; HepG2, 24 h incubation) | IC50 ([5]; HepG2, 48 h incubation) | IC50 ([6]; A375, 24 h incubation) | IC50 ([6]; A375, 48 h incubation) | IC50 [7, 15] | IC50 [7, 16] | IC50 ([8]; WM793, 24 h incubation) | IC50 ([8]; WM793, 48 h incubation) | IC50 ([9]; 24 h incubation) | IC50 ([9]; 48 h incubation) | IC50 ([11]; FTC133, 24 h incubation) | IC50 ([11]; FTC133, 48 h incubation) | further results
1 | CC1(C)CC[C@]2(C(=O)O)CC[C@]3(C)C(=CC[C@@H]4[C@@]5(C)CC[C@H](O[C@@H]6O[C@H](CO)[C@@H](O)[C@H](O[C@@H]7O[C@H](CO)[C@@H](O)[C@H](O)[C@H]7O)[C@H]6O)[C@@](C)(CO)[C@@H]5CC[C@]43C)[C@@H]2C1 [Compound 1] | 27.1 µM and 21.6 µg/mL | 24.2 µM and 19.3 µg/mL | 35.7 µM and 28.4 µg/mL | 31.4 µM and 25 µg/mL | 33 µM and 26.2 µg/mL | 22.8 µM and 18.2 µg/mL | 73.6 µM and 58.6 µg/mL | 44.2 µM and 35.2 µg/mL | 16.6 µM and 13.2 µg/mL | 13.6 µM and 10.8 µg/mL | 22.6 µM and 18 µg/mL | 16 µM and 12.7 µg/mL | 18.7 µM and 14.9 µg/mL | 14.8 µM and 11.8 µg/mL | 34.6 µM and 27.6 µg/mL | 21.6 µM and 17.2 µg/mL | 45.1 µM and 35.9 µg/mL | 32.4 µM and 25.8 µg/mL | 30.8 µM and 24.5 µg/mL | 17.1 µM and 13.6 µg/mL | Overall cytotoxic activity across the panel, in words [10]: exhibited activity against all cell lines tested; IC50 at 24 h [12]: 51.1 µM and 40.7 µg/mL; IC50 at 48 h [12]: 42.8 µM and 34.1 µg/mL; IC50 ([13]; DU-145, 24 h incubation): 20.7 µM and 16.5 µg/mL; IC50 ([13]; DU-145, 48 h incubation): 14.7 µM and 11.7 µg/mL; IC50 at 24 h [14]: 50.8 µM and 40.4 µg/mL; IC50 at 48 h [14]: 33.9 µM and 27 µg/mL
2 | CC1(C)CC[C@]2(C(=O)O[C@@H]3O[C@H](CO)[C@@H](O)[C@H](O)[C@H]3O)CC[C@]3(C)C(=CC[C@@H]4[C@@]5(C)CC[C@H](O)[C@@](C)(CO)[C@@H]5CC[C@]43C)[C@@H]2C1 [Compound 3, 28-O-β-D-glucopyranosyl hederagenin ester] | 42.6 µM and 27 µg/mL | 38 µM and 24.2 µg/mL | 69.2 µM and 44 µg/mL | 60 µM and 38.1 µg/mL | > 100 µg/mL | 155 µM and 98.2 µg/mL | > 100 µg/mL | 118 µM and 74.8 µg/mL | 127 µM and 80.5 µg/mL | 107 µM and 68 µg/mL | 73.5 µM and 46.7 µg/mL | 58 µM and 36.8 µg/mL | 150 µM and 95.3 µg/mL | 73.2 µM and 46.5 µg/mL | > 100 µg/mL | > 100 µg/mL | > 100 µg/mL | > 100 µg/mL | > 100 µg/mL | > 100 µg/mL | IC50 at 24 h [12]: 84.8 µM and 53.8 µg/mL; IC50 at 48 h [12]: 59.5 µM and 37.8 µg/mL; IC50 ([13]; DU-145, 24 h incubation): 56.8 µM and 36.1 µg/mL; IC50 ([13]; DU-145, 48 h incubation): 42.6 µM and 27 µg/mL; IC50 at 24 h [14]: 91.5 µM and 58.1 µg/mL; IC50 at 48 h [14]: 68.2 µM and 43.3 µg/mL
